Positions count from the first letter of the chain named. “Also recorded” adds a separate entry of the source. Blank lines part the entries; values can stand above or below the compound they belong to.
Key:
[1] = target: T1, AA-as7 kinase (Aurora A LI85V, L201G) (Mus musculus, UniProt P97477, L185V/L201G); assay: In vitro kinase assay with AA-as7 and TPX2; assay type: biochemical, murine
T1 construct: the Aurora A mutant is the double mutant Aurora A (AA-as7); 6-His; made in house; host or cells: Sf9 insect cells (baculovirus, Bac-to-Bac)
T1 sequence (P97477 1-395 L185V/L201G): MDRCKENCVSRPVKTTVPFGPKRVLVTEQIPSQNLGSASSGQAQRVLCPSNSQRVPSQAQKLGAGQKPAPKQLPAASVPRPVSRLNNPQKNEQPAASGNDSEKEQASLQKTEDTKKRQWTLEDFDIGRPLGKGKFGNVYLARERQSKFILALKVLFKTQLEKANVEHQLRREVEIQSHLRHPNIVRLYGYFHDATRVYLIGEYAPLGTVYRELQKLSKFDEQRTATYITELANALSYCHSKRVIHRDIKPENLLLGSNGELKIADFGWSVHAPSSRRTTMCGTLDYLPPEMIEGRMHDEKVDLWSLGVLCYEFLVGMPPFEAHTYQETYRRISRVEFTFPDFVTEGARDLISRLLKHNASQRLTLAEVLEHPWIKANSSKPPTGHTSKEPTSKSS
Protocol: (§1) For in vitro labeling, Aurora A/TPX2 complex (on beads) was pre-incubated with 10 μM cold ATP for 10 min to activate the kinase. The beads were washed twice with kinase buffer, and then subjected to kinase assay with 2-5 μg of recombinant protein (such as PHLDA) and 1 μCi of [γ-^32P] ATP. Reactions were terminated by adding SDS sample buffer, separated by SDS-PAGE gel, transferred to PVDF membrane and exposed to Biomax MS film. Aurora A kinase assays were conducted using 1 μCi of [γ-^32P] ATP and 3 μg of Aurora A substrate peptide in a final volume of 30 μl at 30° C. as reported before (Sun, et al, (2008a) Mol. Biol. Cell 19, 3052-3069).
(§2) IC50 values were determined by fitting the data to a sigmoidal dose response curve using GraphPad Prism 4.0 software. Km and Vmax values were derived from the assay described above using various concentrations of AA peptide substrate and ATP. Km and Vmax values were determined using GraphPad Prism 4.0 software.

[2] = tested on: wild-type Aurora A-expressing NIH3T3 cells; assay: Soft agar colony formation, wild-type Aurora A-NIH3T3 cells; assay type: cell-based; details: 0.5 μM (identical conditions)
Protocol: (§3) Briefly equal volumes of nobel agar (1%, DNA grade) and 2×RPMI 1640 (with 20% FBS) were mixed at 40° C. to make 0.5% agar in six-well tissue culture plates (Corning) as a base agar. Cells (0.1 ml of 2.0×10^5/ml) were suspended in 3 mL of 2×RPMI 1640 (with 20% FBS) and 3 ml of 0.7% agar. 1.5 ml of this suspension was added to each well (as 0.35% top agar) with final concentration of 5,000 cells per well. Top agar was covered with 500 μl of culture media. Plates were incubated at 37° C. for 3 to 4 weeks. Fresh media was added every three days.
(§4) For 1-NM-PPI experiments, fresh media containing 1-NM-PP1 (100 nM) or DMSO were added to the cells every 3 days. Colony formation was observed by light phase-contrast microscope and visually after staining with 0.5 ml of 0.01% crystal violet in PBS for 45 min at room temperature. Experiments were repeated in quadruplicate, two independent times to ensure the reproducibility of the results.

AA-as7-NIH3T3 cells = assay: Soft agar colony formation, AA-as7-NIH3T3 cells; assay type: cell-based; details: 0.5 μM
Protocol: as §3, §4

AA-as7-MDA cells = assay: Western blot of protein levels after 1-NM-PP1, AA-as7-MDA cells; assay type: cell-based; details: for Aurora A levels: AA-as7-MDA cells treated with inhibitor
Protocol: Aurora A can regulate its substrates using either its kinase activity or scaffolding function. Therefore, to dissect the mechanism further, AA-MDA and AA-as7-MDA were treated with 1-NM-PP1 for 12 h and PHLDA1 expression analyzed.
(§5) AA-MDA and AA-as7 MDA cells were treated with either DMSO or 1-NM-PP1 (250 nM) for 12 h, followed by cell lysis. For MLN8237 experiment, MDA cells were treated with 1 μM MLN8237 for 12 h.
(§6) Cells were harvested and lysed in modified RIPA buffer, supplemented with protease inhibitors. Equal amounts of cell extracts were then used to conduct western blot.
Aurora A-mediated phosphorylation of its substrates often promotes their degradation (e.g. p53, PHLDA1) or stabilization (ASAP1). Therefore, we investigated whether Aurora A exerts control over LIMK2 level. Aurora A was transiently depleted in MDA cells using two different shRNAs, causing concomitant decrease in LIMK2 level (FIG. 6A). Wild-type and mutant AA (AA-as7) were stably overexpressed in MDA cells (AA-MDA and AA-as7-MDA cells respectively), leading to considerable increase in LIMK2 levels (FIG. 6B), thereby confirming that Aurora A positively regulates LIMK2 levels. Aurora A can regulate its substrates using either its kinase activity or scaffolding function. Aurora A regulates p53 levels by phosphorylation, but regulates ASAP levels through the scaffolding function. Therefore, to dissect the mechanism by which Aurora A regulates LIMK2, AA-MDA and AA-as7-MDA cells were treated with 1-NM-PP 1 for 12 h and LIMK2 expression analyzed.

wild-type Aurora A = target: T2, wild-type Aurora A (Mus musculus, UniProt P97477); assay: In vitro kinase assay with wild-type Aurora A and TPX2; assay type: biochemical, murine
T2 construct: 6-His; made in house; host or cells: Sf9 insect cells (baculovirus, Bac-to-Bac)
T2 sequence (P97477 1-395): T1 sequence (P97477 1-395 L185V/L201G) with V185L, G201L
T2 sequence (Q9ULW0 1-747 partner): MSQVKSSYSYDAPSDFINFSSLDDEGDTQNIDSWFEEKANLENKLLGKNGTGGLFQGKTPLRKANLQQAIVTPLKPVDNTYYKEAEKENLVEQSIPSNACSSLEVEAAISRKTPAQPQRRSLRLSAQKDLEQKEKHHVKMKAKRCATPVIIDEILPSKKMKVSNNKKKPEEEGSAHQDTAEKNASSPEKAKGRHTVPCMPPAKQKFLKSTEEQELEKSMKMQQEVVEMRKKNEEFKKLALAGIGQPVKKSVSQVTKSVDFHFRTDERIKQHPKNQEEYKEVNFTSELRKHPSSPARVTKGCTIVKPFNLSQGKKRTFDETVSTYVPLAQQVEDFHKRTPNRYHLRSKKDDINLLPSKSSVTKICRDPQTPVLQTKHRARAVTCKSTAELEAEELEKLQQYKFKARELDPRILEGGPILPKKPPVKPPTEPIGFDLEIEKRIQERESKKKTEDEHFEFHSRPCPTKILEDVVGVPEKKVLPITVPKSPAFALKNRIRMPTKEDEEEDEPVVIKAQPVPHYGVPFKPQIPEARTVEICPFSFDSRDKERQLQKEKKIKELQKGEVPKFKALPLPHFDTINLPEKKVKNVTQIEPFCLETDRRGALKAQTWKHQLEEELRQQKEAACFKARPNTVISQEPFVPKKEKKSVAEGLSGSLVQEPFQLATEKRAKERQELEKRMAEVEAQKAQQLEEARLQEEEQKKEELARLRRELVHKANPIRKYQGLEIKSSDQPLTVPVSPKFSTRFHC
Protocol: as §1, §2

[3] = tested on: HA-tagged LIMK2 in MDA cells; assay: Gel shift / Western blot of HA-tagged LIMK2 and mutants in MDA cells after MLN8237; assay type: cell-based; details: additional 12 h
Protocol: FIGS. 8A-8D. Aurora A phosphorylates LIMK2 at 5283, T494 and T505 which increases its protein stability. […] 6-His-tagged wild type, (S283A) LIMK2, (T494A) LIMK2 and (T505A) LIMK2 mutants were phosphorylated using Aurora A/TPX2 and [^32P] ATP for 15 min and the products were separate by electrophoresis. […] Nucleic acids sequence encoding HA-tagged (S283A) LIMK2, (T494A) LIMK2, and (T505A) LIMK2 were transfected in MDA cells. After 30 h, cells were incubated with 0.5 μM MLN8237 for additional 16 h. Gel shift assay was performed using 10% SDS PAGE. Protein levels were analyzed using HA and actin antibodies. FIG. 8C is a western blot showing Aurora A promotes LIMK2 stability by phosphorylating S283, T494 and T505. Nucleic acids sequences encoding HA-tagged wt LIMK2, (S283A, T494A) LIMK2 (2A) and (S283A, T494A, T505A) LIMK2 (3A) were transfected in MDA cells. After 30 h, protein levels were analyzed using Aurora A, HA and actin antibodies. […] Wild type, double (2A) and triple (3A) mutants of LIMK2 were transfected in MDA cells along with 6-His Ubiquitin and LIMK2 ubiquitination analyzed.
Aurora A inhibits LIMK2 degradation by directly phosphorylating it at Ser283, Thr494 and Thr505: Since Aurora A regulates LIMK2 by phosphorylation (FIG. 6A), we set to identify Aurora A-mediated phosphorylation sites on LIMK2. Aurora A preferentially phosphorylates R/K/N-R-X-S/T-B, where B denotes any hydrophobic residue except Pro (Ferrari et al. (2005) Biochem. J. 390, 293-302). […] S283A, T494A and T505A LIMK2 alleles were generated and their phosphorylation analyzed in vitro. Aurora A phosphorylates LIMK2 at all these sites (FIG. 8A). […]
To confirm these findings, HA-tagged LIMK2 double mutant (S283A, T494A) and HAtagged LIMK2 triple mutant (S283A, T494A, T505A) were generated and transfected in MDA cells. […] After 24 h, Aurora A was inhibited using MLN8237 for an additional 12 h, and LIMK2 levels analyzed using HA antibody.

MDA cells = assay: Western blot of LIMK2 and Aurora A levels after MLN8237, MDA cells; assay type: cell-based
Protocol: FIG. 11A-11F Aurora A and LIMK2 positive feedback loop is a common feature in several cancers. […] PC3 cells were transfected with scrambled shRNA (lane 1) or Aurora A-shRNA2 (lane 2) and Aurora A and LIMK2 levels analyzed after 30 h. […] FIG. 11C is a western blot showing that Aurora A ablation in HCT116 and PaCa2 cells depletes LIMK2. HCT116 and PaCa2 cells were transfected with scrambled shRNA (lanes 1 and 3) or Aurora A-shRNA2 (lanes 2 and 4) and Aurora A and LIMK2 levels analyzed. […] FIG. 11E is a western blot showing that LIMK2 acts as a pharmacodynamic biomarker for Aurora A kinase activity. Aurora A was inhibited using 0.5 μM MLN8237 in MDA cells and Aurora A, LIMK2 and actin levels analyzed. […] MDA cells were incubated with MLN8237 (0.5 μM and 1 μM) or the vehicle (DMSO). After 48 h, cells were analyzed using MTT assay. p*<0.05, when compared to the control.
as §5, §6
Over a dozen Aurora A targeted drugs are in clinical trials. […] Aurora A was inhibited using MLN8237 and LIMK2 levels analyzed.

[4] = target: Aurora B-as7 (L138V, L154G-AB) kinase (Homo sapiens, UniProt Q96GD4, L138V/L154G); assay: In vitro kinase assay with AB-as7; assay type: biochemical; details: phosphodonor as labelled
wild-type Aurora B = wild-type Aurora B (Homo sapiens, UniProt Q96GD4); assay: In vitro kinase assay with wild-type Aurora B; assay type: biochemical
[5] = AA-as7, phosphodonor as labelled

wild-type Aurora B, sequence (Q96GD4 whole entry): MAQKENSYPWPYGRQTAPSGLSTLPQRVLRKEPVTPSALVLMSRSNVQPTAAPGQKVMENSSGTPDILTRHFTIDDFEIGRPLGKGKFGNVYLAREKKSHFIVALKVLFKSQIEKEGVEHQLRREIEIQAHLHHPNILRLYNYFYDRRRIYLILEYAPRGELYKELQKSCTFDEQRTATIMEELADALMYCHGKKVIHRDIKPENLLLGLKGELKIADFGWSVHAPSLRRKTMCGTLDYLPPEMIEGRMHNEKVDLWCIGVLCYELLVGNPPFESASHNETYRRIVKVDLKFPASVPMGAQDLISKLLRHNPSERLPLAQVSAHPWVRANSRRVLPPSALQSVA
Aurora B-as7 (L138V, L154G-AB) kinase, sequence (Q96GD4 whole entry L138V/L154G): as the sequence (Q96GD4 whole entry) above, with L138V, L154G counted along it

IC50 ([1]; AA-as7 kinase): 1.7 nM
inhibition of wild-type Aurora A (wild-type Aurora A; even at higher concentrations): does not inhibit
SMILES: CC(C)(C)n1nc(Cc2cccc3ccccc23)c2c(N)ncnc21 [1-NM-PP1]
colony formation in soft agar [2]: robust colony formation
colony formation in soft agar (AA-as7-NIH3T3 cells): completely inhibited colony formation
LIMK2 level (AA-as7-MDA cells; 250 nM, 12 h, AA-as7-MDA cells): significant decrease; also recorded: reduces LIMK2 levels
PHLDA1 level (AA-as7-MDA cells; 12 h, AA-as7-MDA cells): increased
Aurora A levels (AA-as7-MDA cells): reduces Aurora A levels significantly
Aurora A levels (AA-as7-MDA cells; listed as 1-NM-PP 1): decreased Aurora A levels; also recorded: lower Aurora A levels

SMILES: COc1cc(Nc2ncc3c(n2)-c2ccc(Cl)cc2C(c2c(F)cccc2OC)=NC3)ccc1C(=O)O [MLN8237]
phospho-levels and protein levels of wt LIMK2 and (S283A, T494A) LIMK2 [3]: decreased
phosphorylation level (top band) and overall protein level of LIMK2 single mutants (S283A, T494A, T505A) [3]: decreased
protein and phospho-levels of LIMK2 triple mutant (S283A, T494A, T505A) [3]: remained unchanged
Aurora A levels (MDA cells): reduced
LIMK2 levels (MDA cells): depleted LIMK2 levels; also recorded: reduced

Kcat [1, 5]: 54.2 s⁻¹
Km [1, 5]: 17.7 µM
Vmax [1, 5]: 7.31 × 10^5
Kcat [4]: 2.75 s⁻¹
Km [4]: 30.4 µM
Vmax [4]: 3.30 × 10^4
Kcat (wild-type Aurora B): 4.27 s⁻¹
Km (wild-type Aurora B): 23 µM
Vmax (wild-type Aurora B): 5.12 × 10^4
Kcat (wild-type Aurora A; wild-type Aurora A): 31.3 s⁻¹
Km (wild-type Aurora A; wild-type Aurora A): 16.2 µM
Vmax (wild-type Aurora A; wild-type Aurora A): 4.24 × 10^5
SMILES: Nc1ncnc2c1ncn2[C@@H]1O[C@H](COP(=O)(O)OP(=O)(O)OP(=O)(O)O)[C@@H](O)[C@H]1O [ATP]
